Experimental data from patent US20070099828A1, “BIOMARKERS FOR THE EFFICACY OF CALCITONIN AND PARATHYROID HORMONE TREATMENT” (priority 2003, published 2007).
Where “and” joins values, the source holds several entries; their conditions need not be identical. Equal values may be shown once. Ends that are not written are not given here.

Experiments:
[1] = cynomolgus monkey, in vivo
Excerpt: Animals. […] Solvent was used as vehicle for the control group.
The animals used in this analysis were cynomolgus monkeys (Macaca fascicularis), supplied by Centre de Recherches Primatologiques, Port Louis, Mauritius. Two animals were used per group and sex. At the beginning of the treatment period, the animals were at least 24 months old, with a body weight of approximately 3 kg. Animals were kept under standard conditions for animal welfare. Animals were examined daily for mortality, food consumption and clinical observations. Body weight was recorded once per week.

[2] = Blood pressure; type: in vivo, cynomolgus monkeys (Macaca fascicularis); settings: for Blood Pressure Difference: Week 2 vs Week-1; for Blood Pressure Week-1: before dosing
[3] = Haematology; type: in vivo, cynomolgus monkeys (Macaca fascicularis)
Excerpt: (§1) Blood sampling. […] Blood samples were taken from a peripheral vein.

[4] = Hormone determinations in serum; type: in vivo, cynomolgus monkeys (Macaca fascicularis); settings: males
Excerpt: as §1

[5] = Urinary analysis
[6] = urine, females, day −8 (pre-dose)

Sequence: SVSEIQLLHDKGKHLASQERVEWLRKKLQDVHTA [PTS893, Leu8, Asp10, Lys11, Ala16, Gln18, Thr33, Ala34 human PTH 1-34 [hPTH(1-34)]]
- Food Consumption Avg., Both animals [1]: 89.6
- Blood Pressure Week 2 ([2]; Female, first line per animal): 70 mmHg and 87 mmHg
- Blood Pressure Difference ([2]; Female, first line per animal): −22 mmHg and 9 mmHg
- Blood Pressure Week-1 ([2]; Female, first line per animal): 92 mmHg and 78 mmHg
- Blood Pressure Week 2 ([2]; Female, second line per animal): 42 mmHg and 28 mmHg
- Blood Pressure Difference ([2]; Female, second line per animal): −1 mmHg and 4 mmHg
- Blood Pressure Week-1 ([2]; Female, second line per animal): 43 mmHg and 24 mmHg
- Blood Pressure Week 2 ([2]; Male, first line per animal): 87 mmHg and 101 mmHg
- Blood Pressure Difference ([2]; Male, first line per animal): 11 mmHg and −5 mmHg
- Blood Pressure Week-1 ([2]; Male, first line per animal): 76 mmHg and 106 mmHg
- Blood Pressure Week 2 ([2]; Male, second line per animal): 22 mmHg and 33 mmHg
- Blood Pressure Difference ([2]; Male, second line per animal): 4 mmHg and −20 mmHg
- Blood Pressure Week-1 ([2]; Male, second line per animal): 18 mmHg and 53 mmHg
- B ([3]; females, d 7): 0.06 G/L and 0.04 G/L
- L ([3]; females, d 7): 6.29 G/L and 5.87 G/L
- MCH ([3]; females, d 7): 18.9 pg and 19 pg
- MCV ([3]; females, d 7): 67 fL and 68 fL
- PCV ([3]; females, d 7): 0.41 l/l and 0.43 l/l
- PLAT ([3]; females, d 7): 525 G/L and 382 G/L
- RBC ([3]; females, d 7): 6.2 T/l and 6.4 T/l
- WBC ([3]; females, d 7): 18.4 G/l and 12.3 G/l
- B ([3]; females, d 13): 0.03 G/L and 0.04 G/L
- E ([3]; females, d 13): 0.21 G/L and 0.29 G/L
- HB ([3]; females, d 13): 11.3 g/dL
- L ([3]; females, d 13): 5.81 G/L and 5.21 G/L
- MCH ([3]; females, d 13): 19.3 pg and 19.2 pg
- MCV ([3]; females, d 13): 67 fL and 66 fL
- PCV ([3]; females, d 13): 0.4 l/l and 0.39 l/l
- PLAT ([3]; females, d 13): 496 G/L and 309 G/L
- RBC ([3]; females, d 13): 5.9 T/l
- WBC ([3]; females, d 13): 13.2 G/l and 10.1 G/l
- L ([3]; females, d −8 (before dosing)): 3.92 G/L and 4.4 G/L
- MCH ([3]; females, d −8 (before dosing)): 19.3 pg
- MCV ([3]; females, d −8 (before dosing)): 63 fL and 64 fL
- PCV ([3]; females, d −8 (before dosing)): 0.44 l/l and 0.43 l/l
- RBC ([3]; females, d −8 (before dosing)): 6.9 T/l and 6.7 T/l
- WBC ([3]; females, d −8 (before dosing)): 10.1 G/l and 14.3 G/l
- monocyte count ([3]; females, d −8 (before dosing)): 0.8 G/l and 0.54 G/l
- B ([3]; males, d 7): 0.02 G/l and 0.03 G/l
- HB ([3]; males, d 7): 11.3 g/dL and 11.9 g/dL
- L ([3]; males, d 7): 5.91 G/l and 5.30 G/l
- MCH ([3]; males, d 7): 17.7 pg and 20.2 pg
- MCHC ([3]; males, d 7): 29.3 g/dL and 30.2 g/dL
- MCV ([3]; males, d 7): 60 fL and 67 fL
- PCV ([3]; males, d 7): 0.38 l/l and 0.40 l/l
- PLAT ([3]; males, d 7): 456 G/l and 589 G/l
- RBC ([3]; males, d 7): 6.4 T/l and 5.9 T/l
- WBC ([3]; males, d 7): 8.4 G/l and 15.0 G/l
- B ([3]; males, d 13): 0.04 G/l and 0.03 G/l
- HB ([3]; males, d 13): 11.7 g/dL and 11.8 g/dL
- L ([3]; males, d 13): 5.37 G/l and 4.86 G/l
- M ([3]; males, d 13): 0.27 G/l and 0.46 G/l
- MCH ([3]; males, d 13): 17.3 pg and 20.3 pg
- MCHC ([3]; males, d 13): 27.5 g/dL and 29.2 g/dL
- MCV ([3]; males, d 13): 63 fL and 70 fL
- PCV ([3]; males, d 13): 0.43 l/l and 0.41 l/l
- PLAT ([3]; males, d 13): 330 G/l and 452 G/l
- RBC ([3]; males, d 13): 6.8 T/l and 5.8 T/l
- WBC ([3]; males, d 13): 8.8 G/l and 11.9 G/l
- HB ([3]; males, d −6 (before dosing)): 13.6 g/dL and 13.2 g/dL
- L ([3]; males, d −6 (before dosing)): 5.07 G/l and 3.99 G/l
- MCH ([3]; males, d −6 (before dosing)): 18.0 pg and 20.4 pg
- MCHC ([3]; males, d −6 (before dosing)): 31.5 g/dL and 33.1 g/dL
- MCV ([3]; males, d −6 (before dosing)): 57 fL and 62 fL
- PCV ([3]; males, d −6 (before dosing)): 0.43 l/l and 0.40 l/l
- PLAT ([3]; males, d −6 (before dosing)): 325 G/l and 459 G/l
- RBC ([3]; males, d −6 (before dosing)): 7.6 T/l and 6.5 T/l
- WBC ([3]; males, d −6 (before dosing)): 10.4 G/l and 9.1 G/l
- ACTH ([4]; day 7): 101 pg/mL and 88 pg/mL
- ALDOST ([4]; day 7): 380 pg/mL and 471 pg/mL
- C-PEPTI ([4]; day 7): 2.90 ng/mL and 4.40 ng/mL
- CORTISOL ([4]; day 7): 1156 nmol/L and 1432 nmol/L
- CT ([4]; day 7): 4.0 pg/mL and 7.8 pg/mL
- G.H. ([4]; day 7): 15.8 ng/mL and 11.6 ng/mL
- GASTRIN ([4]; day 7): 84 pg/mL and 98 pg/mL
- GLUCAG ([4]; day 7): 656 pg/mL and 497 pg/mL
- INSULIN ([4]; day 7): 22.0 mU/l and 38.0 mU/l
- IPH ([4]; day 7): 96 pg/mL and 62 pg/mL
- S.MED ([4]; day 7): 749 ng/mL and 828 ng/mL
- T3 ([4]; day 7): 3.47 nmol/L and 2.76 nmol/L
- T4 ([4]; day 7): 90 nmol/L and 80 nmol/L
- VD25-H ([4]; day 7): 62 nmol/L
- ACTH ([4]; day 13): 83 pg/mL and 91 pg/mL
- ALDOST ([4]; day 13): 592 pg/mL and 651 pg/mL
- C-PEPTI ([4]; day 13): 2.10 ng/mL and 2.40 ng/mL
- CORTISOL ([4]; day 13): 1299 nmol/L and 1212 nmol/L
- CT ([4]; day 13): 4.6 pg/mL and 7.6 pg/mL
- G.H. ([4]; day 13): 12.1 ng/mL and 14.0 ng/mL
- GASTRIN ([4]; day 13): 78 pg/mL and 94 pg/mL
- GLUCAG ([4]; day 13): 786 pg/mL and 739 pg/mL
- INSULIN ([4]; day 13): 14.0 mU/l and 10.0 mU/l
- IPH ([4]; day 13): 78 pg/mL and 55 pg/mL
- S.MED ([4]; day 13): 914 ng/mL and 867 ng/mL
- T3 ([4]; day 13): 3.55 nmol/L and 2.43 nmol/L
- T4 ([4]; day 13): 68 nmol/L and 56 nmol/L
- VD25-H ([4]; day 13): 50 nmol/L
- ALDOST ([4]; day −6 (pre-dose)): 265 pg/mL and 141 pg/mL
- CORTISOL ([4]; day −6 (pre-dose)): 1662 nmol/L and 1506 nmol/L
- CT ([4]; day −6 (pre-dose)): 6.1 pg/mL and 10.4 pg/mL
- G.H. ([4]; day −6 (pre-dose)): 13.4 ng/mL and 8.5 ng/mL
- GLUCAG ([4]; day −6 (pre-dose)): 858 pg/mL and 694 pg/mL
- INSULIN ([4]; day −6 (pre-dose)): 16.0 mU/l and 12.0 mU/l
- IPH ([4]; day −6 (pre-dose)): 123 pg/mL and 71 pg/mL
- PROLACT ([4]; day −6 (pre-dose)): 7.1 ng/mL and 7.5 ng/mL
- T3 ([4]; day −6 (pre-dose)): 2.48 nmol/L and 1.38 nmol/L
- T4 ([4]; day −6 (pre-dose)): 84 nmol/L and 59 nmol/L
- VD25-H ([4]; day −6 (pre-dose)): 77 nmol/L and 88 nmol/L
- ACTH ([4]; day −6 relative to start of dosing (pre-dose)): 96 pg/mL and 115 pg/mL
- Ca2+ (urine) ([5]; males, day 13): 7.55 mmol/L and 13.10 mmol/L
- I.PHOS (urine) ([5]; males, day 13): 0.10 mmol/L and 0.17 mmol/L
- K+ (urine) ([5]; males, day 13): 107 mmol/L and 69 mmol/L
- LDH (urine) ([5]; males, day 13): 14.0 IU/L and 19.0 IU/L
- Mg2+ (urine) ([5]; males, day 13): 8.70 mmol/L and 5.25 mmol/L
- NAG (urine) ([5]; males, day 13): 2.9 IU/l and 2.6 IU/l
- CREAT (urine) ([5]; males, day −5 (before dosing)): 16160 µmol/L and 16120 µmol/L
- CREAT (urine) ([5]; males, day −6 (before dosing)): 16160 µmol/L and 9940 µmol/L
- Ca2+ (urine) ([5]; males, day −6 (before dosing)): 5.10 mmol/L and 3.50 mmol/L
- K+ (urine) ([5]; males, day −6 (before dosing)): 86 mmol/L and 125 mmol/L
- LDH (urine) ([5]; males, day −6 (before dosing)): 7.0 IU/L and 9.0 IU/L
- CREAT ([5]; urine, females, day 13): 5620 µmol/L and 8060 µmol/L
- Ca2+ ([5]; urine, females, day 13): 20.05 mmol/L and 12.35 mmol/L
- Cl− ([5]; urine, females, day 13): 101 mmol/L and 133 mmol/L
- LDH ([5]; urine, females, day 13): 10.0 IU/L and 9.0 IU/L
- Mg2+ ([5]; urine, females, day 13): 6.90 mmol/L and 5.90 mmol/L
- VOLUME ([5]; urine, females, day 13 of dosing): 52 mL and 42 mL
- CREAT [5, 6]: 19160 µmol/L and 14060 µmol/L
- Ca2+ [5, 6]: 11.50 mmol/L and 6.60 mmol/L
- K+ [5, 6]: 302 mmol/L and 164 mmol/L
- LDH [5, 6]: 11.0 IU/L and 18.0 IU/L
- Mg2+ [5, 6]: 7.35 mmol/L and 4.00 mmol/L
- Na+ [5, 6]: 145 mmol/L and 118 mmol/L
